Data on three molecules can be found in paper PMC5062570 (Nature Communications, 2016).

“Also recorded” adds a separate entry of the source. Read-outs that look alike come from different tables or passages of the source.

Series [1] has as its system CatD protein level in ARPE-19 cells. In words: Chronic ARPE-19 inhibitor treatment and CatD ELISA. Type of series: cell-based, human. Particulars: 300 pM-10 μM, 7 days. The procedure: ARPE-19 cells were plated in 96-well plates at a density of 2 × 10^4 cells per well. After 12–24 h, media was removed and replaced with media containing test compounds at the indicated concentration. After 7 days of compound incubation (no media changes or additional test compound treatments), conditioned media was collected for a cytotoxicity assay, and attached cells were washed once with DPBS and then lysed on ice with gentle pipetting followed by a 20 min extraction in 50 μl in ice-cold RIPA buffer (50 mM Tris, pH 7.4, 150 mM NaCl, 1 mM EDTA, 1% NP40, 1% Na deoxycholate, 0.1% SDS) supplemented with 1 mM PMSF (Sigma) and EDTA-free protease inhibitor cocktail tablets (Roche). Cytotoxicity was determined from conditioned media using an LDH assay (Pierce 88954) as per the manufacturer's protocol. CatD protein levels were measured by ELISA (EMD Millipore Q1A29) as per the manufacturer's protocol. For both the LDH assay and the ELISA, absorbance was read on an EnVision plate reader (PerkinElmer). Data were normalized to DMSO and plotted in GraphPad Prism.

The target of series [2] is T1, CatD (Homo sapiens, UniProt P07339). Nature of the series: CatD purified enzyme fluorescence polarization assay. The class given is biochemical. Set-up: final maturation into a non-covalently associated heavy chain and light chain; purchased Sigma C8696; host or cells: human liver. Particulars: for IC50: purified human enzyme, fluorescence polarization, substrate-based. The method, then:
(§1) Purified enzyme inhibition of BACE1, BACE2, CatD and CatE was determined using fluorescence polarization (FP) assays. Briefly, purified enzymes were treated with test compounds (1% DMSO, 37 °C) in the presence of synthetic peptide substrates (150 nM) in 30 μl total volume of NaOAc buffer (100 mM, pH 4.5, 0.0001% Tween-20) in a 384-well plate. After incubation, reactions were stopped and substrate captured by the addition of 1.5 μM streptavidin, and FP measured with an EnVision plate reader (PerkinElmer, excitation 485 nm, emission 530 nm). […] BACE2 activity was assessed with 0.5 nM recombinant BACE2 (R&D Systems 4097-AS) and the same synthetic substrate used for BACE1, with a 1 h incubation time. […] CatE activity was assessed with 1.0 nM recombinant CatE (Creative BioMart CTSE-255H) and the same synthetic substrate used for CatD, with a 1.5 h incubation time.
Target sequence in this assay (P07339 65-162 limits assumed): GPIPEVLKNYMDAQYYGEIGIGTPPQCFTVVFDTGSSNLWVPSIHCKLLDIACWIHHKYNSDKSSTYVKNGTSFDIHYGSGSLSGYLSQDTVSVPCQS
Target sequence in this assay (P07339 169-412 limits assumed): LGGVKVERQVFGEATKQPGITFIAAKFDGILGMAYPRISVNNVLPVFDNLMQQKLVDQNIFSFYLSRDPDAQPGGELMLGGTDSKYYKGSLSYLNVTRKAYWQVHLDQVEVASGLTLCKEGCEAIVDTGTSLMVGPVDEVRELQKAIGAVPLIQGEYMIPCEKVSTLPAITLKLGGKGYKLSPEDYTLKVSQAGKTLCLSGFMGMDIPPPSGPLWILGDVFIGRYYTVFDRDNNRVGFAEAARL

The next series concerns the target T2, BACE2 (Homo sapiens, UniProt Q9Y5Z0).
T2 construct: purchased R&D Systems 4097-AS
T2 sequence (Q9Y5Z0 63-518): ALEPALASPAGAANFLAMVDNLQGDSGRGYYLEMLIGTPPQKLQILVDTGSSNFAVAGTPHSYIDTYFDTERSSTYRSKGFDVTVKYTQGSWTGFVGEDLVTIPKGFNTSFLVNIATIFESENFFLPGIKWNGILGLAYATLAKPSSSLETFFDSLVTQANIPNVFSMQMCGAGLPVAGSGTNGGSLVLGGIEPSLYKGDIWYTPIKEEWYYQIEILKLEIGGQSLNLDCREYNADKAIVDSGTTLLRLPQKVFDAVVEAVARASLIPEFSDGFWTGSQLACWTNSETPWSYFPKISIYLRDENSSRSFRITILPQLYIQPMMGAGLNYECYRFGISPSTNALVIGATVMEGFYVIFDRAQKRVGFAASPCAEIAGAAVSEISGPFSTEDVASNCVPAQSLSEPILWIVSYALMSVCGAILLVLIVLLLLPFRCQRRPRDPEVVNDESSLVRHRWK
Nature of the series: BACE2 purified enzyme fluorescence polarization assay. The class given is biochemical. Particulars: for IC50: purified human enzyme, fluorescence polarization. The method, then: as §1

The target in series [3] is T3, ~30 kDa band (CatD heavy chain) in ARPE-19 cells (Homo sapiens, UniProt P07339).
T3 construct: host or cells: ARPE-19
In words: Live cell PF-7802 labelling, in-gel fluorescence analysis. The class given is cell-based. The conditions noted are these: pretreatment 2 µM inhibitor, PF-7802 100 nM.
Protocol: Cells were lysed with sonication on ice in 70 μl DPBS and protein concentrations were determined using a BCA assay (Pierce). […] Gels were fixed in 50% MeOH/7% AcOH for 15 min, then rinsed with 40% MeOH for at least 20 min before in-gel fluorescence scanning (Typhoon Trio, excitation 532 nm, emission 580 nm).

For series [4], the target named is T4, BACE1 (Homo sapiens, UniProt P56817). In words: BACE1 purified enzyme fluorescence polarization assay. The class given is biochemical. Set-up: His (C); made in house; host or cells: CHO-K1. Particulars: for IC50: purified human enzyme, fluorescence polarization, peptide substrate. The procedure:
as §1
Target sequence in this assay (P56817 46-457): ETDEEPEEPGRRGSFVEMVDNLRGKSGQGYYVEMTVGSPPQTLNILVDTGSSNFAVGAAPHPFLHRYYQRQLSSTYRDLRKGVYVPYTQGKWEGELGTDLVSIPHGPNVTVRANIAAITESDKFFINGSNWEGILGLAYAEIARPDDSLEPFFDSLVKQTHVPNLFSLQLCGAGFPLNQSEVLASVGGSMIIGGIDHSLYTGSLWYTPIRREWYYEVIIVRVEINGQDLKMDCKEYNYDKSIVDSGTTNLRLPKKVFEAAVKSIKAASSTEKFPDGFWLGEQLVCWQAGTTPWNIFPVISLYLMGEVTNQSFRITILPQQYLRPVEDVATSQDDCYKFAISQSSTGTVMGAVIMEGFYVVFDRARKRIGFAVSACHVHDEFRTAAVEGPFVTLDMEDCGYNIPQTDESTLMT

Series [5] deals with retinal pigment epithelium (RPE). In words: Exploratory toxicology, ocular toxicity by retinal histology in rats. Type of series: in vivo. Particulars: rat, 14 days. The method, then:
(§2) Wistar Han rats (obtained from Charles River, 125–300 g, 6–9 weeks old at study start, see Supplementary Table 7 for number of males and females) received daily oral dosing of test compounds or vehicle at the indicated concentrations for 7–29 days as indicated. The doses were prepared in a solution of 0.5% methylcellulose and 0.2% polysorbate 80, or 0.5% methylcellulose and hydroxypropyl methylcellulose acetate succinate (high fine grade) and delivered in a volume of 10 ml kg^−1 per day. Blood samples for bioanalytical analysis were collected in K2EDTA tubes via jugular vessel. Plasma was isolated after centrifugation and stored at −20 °C prior to analysis. Animals were given an additional dose the day after the end of the study (days 8, 15 or 30 for 7, 14 and 29 day studies, respectively) then killed by gas anaesthesia (isoflurane) followed by exsanguination ∼3 h after this final dose.

Series [6] concerns the target T1, CatD. Nature of the series: CatD cellular assay (competition of PF-7802 photolabelling in live ARPE-19 cells). Type of series: cell-based. The arrangement: host or cells: ARPE-19. The procedure:
ARPE-19 cells were plated at a density of 1.2 × 10^6 cells per well in six-well dishes 12–24 h before probe labelling. Culture media was removed completely and replaced with 1 ml of the appropriate serum-free media (no supplements) per well. Cells were then pretreated with test compounds at the indicated concentrations for 30 min (0.5% DMSO, 37 °C, 5% CO2). […] Ultraviolet irradiation was performed without culture plate lids for efficient irradiation, and samples were slowly rotated to prevent evaporation. After ultraviolet irradiation, cells were washed twice with Dulbecco's phosphate-buffered saline (DPBS), scraped into DPBS, centrifuged and stored as pellets at −80 °C.
Cells were lysed with sonication on ice in 70 μl DPBS and protein concentrations were determined using a BCA assay (Pierce). Total protein concentrations were then normalized to 1 mg ml^−1 in 50 μl total volume before addition of 5.5 μl click chemistry mix (1 : 3 : 1 : 0.5 volume of 50 mM CuSO4 (Sigma) in H2O : 1.7 mM TBTA (Sigma) in 4:1 t-BuOH:DMSO : 50 mM TCEP (Hampton Research) in dPBS : 10 mM TAMRA-azide (Lumiprobe) in DMSO - mixed immediately before use. Reagent solutions can be premade and stored at 4 °C except for TCEP, which should be made immediately before use). […] All fluorescence gels are presented in greyscale.
Target sequence in this assay (P07339 169-412 limits assumed): as the sequence (P07339 169-412 limits assumed) above
Target sequence in this assay (P07339 65-162 limits assumed): as the sequence (P07339 65-162 limits assumed) above

Series [7] has as its target T4, BACE1. In words: BACE1 biochemical cellular assay (sAPPβ ELISA in H4 cells overexpressing APP695). The class given is cell-based. The arrangement: endogenous in cells; host or cells: H4 human neuroglioma cells overexpressing human APP695. Particulars: for IC50: sAPPβ ELISA, H4 neuroglioma cells with human wild-type APP. The procedure: Cellular inhibition of BACE1 was determined by measuring sAPPβ, the primary cleavage product of BACE-1, in H4 human neuroglioma cells overexpressing the wild-type human APP695. […] The colorimetric reaction was read by an EnVision plate reader (PerkinElmer).
Target sequence in this assay (P56817 46-501): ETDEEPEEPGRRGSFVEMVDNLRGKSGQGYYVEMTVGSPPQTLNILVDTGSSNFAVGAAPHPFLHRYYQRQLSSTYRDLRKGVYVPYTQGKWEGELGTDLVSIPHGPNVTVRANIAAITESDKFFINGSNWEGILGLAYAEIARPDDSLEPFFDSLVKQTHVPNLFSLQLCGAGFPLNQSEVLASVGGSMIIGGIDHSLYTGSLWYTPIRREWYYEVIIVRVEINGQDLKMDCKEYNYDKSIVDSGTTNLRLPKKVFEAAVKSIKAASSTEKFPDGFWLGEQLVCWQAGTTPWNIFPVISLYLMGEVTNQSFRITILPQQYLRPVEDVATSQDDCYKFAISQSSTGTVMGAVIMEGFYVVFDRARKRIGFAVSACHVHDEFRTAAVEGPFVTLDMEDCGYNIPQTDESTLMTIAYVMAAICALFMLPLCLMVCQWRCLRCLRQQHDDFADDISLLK

A short description of series [8]: In vivo metabolism of BACE1 inhibitors in rats. Set-up: species or system rat.
Series [9] can be described thus: Plasma exposure (average unbound plasma concentration) in rats. Type of series: in vivo, rat. The conditions noted are these: rat, 14 days; for concentration at 29 days: average unbound plasma concentration, read-out: Avg Cp,u parent; for Avg Cp,u metabolite: metabolite of the dosed compound. The procedure: as §2
Plasma samples were analysed after protein precipitation by treating 20 μl of sample matrix with 200 μl of acetonitrile containing internal standard. All samples were centrifuged at 3,000 r.p.m. for 5 min. Then 100 μl of supernatant was transferred to a clean plate and evaporated to dryness under N2. Samples were reconstituted in 200 μl of 80:20 (v:v) acetonitrile:water. Samples were analysed on Waters Acquity UPLC connected to AB Sciex API5500 QTrap MS/MS.
Plasma protein binding was determined in the Rapid Equilibrium Device (RED, Thermo Scientific). Frozen plasma was warmed to 37 °C and adjusted to pH 7.4. The plasma was spiked with compound to a final concentration of 2 μM. Aliquots of spiked plasma were added to the donor (red) side, followed by addition of buffer to the receiver (white) side. The RED device was covered with a gas-permeable membrane and agitated within a humidified CO2 incubator (5% CO2, 75% relative humidity). Plasma (15 μl) and buffer (45 μl) were sampled from each insert and were matrix-matched with appropriate blank matrix (plasma with 45 μl buffer and buffer with 15 μl of plasma). Samples were protein-precipitated with acetonitrile containing internal standard, and the resulting supernatant was analysed by LC-MS/MS.

Series [10] can be described thus: pKa determination by multiplexed capillary electrophoresis. Type of series: physicochemical. The conditions noted are these: aqueous buffers. The procedure: All pKa values were determined at Analiza, Inc. by multiplexed capillary electrophoresis (mCE) using 96-capillary array electrophoresis instrument to measure the effective mobility (migration time of the compound in relation to neutral marker, DMSO) with ultraviolet detection. The pKa values were obtained from the ionization curves by plotting the compound effective mobility (24 points across pH range 1.7–11.2) versus pH. All pKa results were determined using aqueous buffers with method average absolute error 0.12.

The next series can be described thus: Microsomal stability. The class given is in vitro ADME.
Series [11] deals with T1, CatD. Nature of the series: PF-7802 labelling of HEK293T cells overexpressing CatD. Particulars: 1 μM PF-7802, in-gel fluorescence. The arrangement: Myc-DDK (FLAG) (C); host or cells: HEK293T. Type of series: cell-based. The method, then: (§3) Myc-DDK-tagged BACE1 and CatD were purchased as complementary DNA clones in the pCMV6-Entry vector (OriGene, catalogue nos RC209115 and RC200719). Site-directed mutagenesis was performed using the QuikChange II kit (Agilent) according to the manufacturer's protocols. For CatD M307A, forward primer 5′-[…]-3′ and its reverse complement primer were used. For CatD M309A, the forward primer was 5′-[…]-3′. Mutagenesis was confirmed by sequencing using primers provided by OriGene with the cDNA.
(§4) HEK-293T cells were plated at a density of 1 × 10^6 cells per well, allowed to adhere overnight and then transfected with Lipofectamine 3000 (Life Technologies) according to the manufacturer's protocol. […] Immunoblots were scanned using a LiCor Odyssey.
Target sequence in this assay (P07339 65-412): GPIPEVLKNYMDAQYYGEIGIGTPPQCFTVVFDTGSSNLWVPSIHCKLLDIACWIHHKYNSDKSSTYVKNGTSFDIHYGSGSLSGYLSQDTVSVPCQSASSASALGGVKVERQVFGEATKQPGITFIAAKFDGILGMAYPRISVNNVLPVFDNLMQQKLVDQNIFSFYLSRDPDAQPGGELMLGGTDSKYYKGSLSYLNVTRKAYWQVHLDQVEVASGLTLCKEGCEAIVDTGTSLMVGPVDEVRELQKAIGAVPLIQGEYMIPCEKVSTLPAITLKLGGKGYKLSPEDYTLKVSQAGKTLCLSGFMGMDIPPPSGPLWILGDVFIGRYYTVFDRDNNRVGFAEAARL

For series [12], the target named is T4, BACE1. Nature of the series: PF-7802 labelling of HEK293T cells overexpressing BACE1. The class given is cell-based. Set-up: endogenous in cells; host or cells: H4 human neuroglioma cells overexpressing human APP695. The conditions noted are these: 1 μM PF-7802, in-gel fluorescence. The method, then:
as §3, §4
Target sequence in this assay (P56817 46-501): as the sequence (P56817 46-501) above

T3 sequence (P07339 169-412 limits assumed): as the sequence (P07339 169-412 limits assumed) above
T3 sequence (P07339 65-162 limits assumed): as the sequence (P07339 65-162 limits assumed) above

For `CNC1CCN(C(=O)C[C@@H](Cc2ccccc2)C(=O)N[C@@H](CSC)C(=O)N[C@@H](CC2CCCCC2)[C@@H](O)C(=O)OC(C)C)CC1` [CP-108671, reference compound], in series [1], the “CatD protein accumulation (ELISA)” value is listed as “could be reproduced”. In addition, the “Inhibition of purified CatD” value at CatD [2] (purified CatD biochemical substrate assay) is reported as “potent; also recorded: nanomolar potency”. Further, the “BACE2 activity” value at BACE2 was “no activity”. Further, in series [3], the “Competition of PF-7802 labelling of the 30 kDa band” value is “blocked labelling of the 30 kDa band”. The “BACE1 activity” value on BACE1 [4] is reported as “no BACE1 activity”.
For the molecule `Cc1coc([C@H]2C[C@H]3[C@@H](CF)SC(N)=N[C@@]3(c3ccc(F)cc3F)CO2)n1` [PF-1283], the “Female ocular toxicity incidence (positive or negative animals / total evaluated)” value in series [5] (45 mg kg-1 once daily) is 3/3; in series [5] (110 mg kg-1 once daily), 1/3. Besides, the “Female ocular toxicity outcome” value in series [5] (45 mg kg-1 once daily) is reported as “Neg (negative (neg) if there was no ocular abnormality observed)”; in series [5] (110 mg kg-1 once daily), “Pos”. In addition, the “Male ocular toxicity incidence (positive or negative animals / total evaluated)” value in series [5] (45 mg kg-1 once daily) and in [5] (110 mg kg-1 once daily) was 3/3 in each case. Also, the “Male ocular toxicity outcome” value in [5] (45 mg kg-1 once daily) and in [5] (110 mg kg-1 once daily) was “Neg (negative (neg) if there was no ocular abnormality observed)” in each case. On CatD [6] (CatD enzyme IC50 versus CatD cellular IC50), the “CatD potency increase in live cells” value was 54 x. The IC50 is 240 nM at CatD [6] (live ARPE-19 cells, PF-7802 photoprobe 100 nM, 30 min); 10 nM on BACE1 [7]; 13000 nM against CatD [2]; 95 nM at BACE2; 120 nM on BACE1 [4]. Besides, the “BACE1 potency increase in live cells” value at BACE1 [7] (BACE1 enzyme IC50 versus BACE1 cellular IC50) was found to be 12 x. For the same molecule, the “Stability to oxidative metabolism” value in series [8] is recorded as “significantly more stable to oxidative metabolism; also recorded: significantly less susceptible to oxidative metabolism”. Moreover, the concentration at 29 days in series [9] (45 mg kg-1 once daily) came to 109 nM; in series [9] (110 mg kg-1 once daily) it was 793 nM. Further, the figures for the “Avg Cp,u metabolite” value in [9] (45 mg kg-1 once daily) and in series [9] (110 mg kg-1 once daily) were 352 nM and 859 nM, respectively. In series [10], this molecule came in with a pKa of 7.0.
For `C#CCOc1ccc(C(=O)c2ccc(COC[C@H]3C[C@H]4CSC(N)=N[C@@]4(c4ccc(F)cc4F)CO3)cc2)cc1` [PF-7802], the “Microsomal stability” value in “Microsomal stability” is reported as “poor microsomal stability”. In addition, the “PF-7802 labelling in HEK293T cells overexpressing CatD” value at CatD [11] is “robust labelling of CatD was observed”. The IC50 at BACE1 [7] came out at 320 nM; at CatD [2] it was 1200 nM; against BACE2, 120 nM; against BACE1 [4], 44 nM. The “PF-7802 labelling in HEK293T cells overexpressing BACE1” value at BACE1 [12] was “indistinguishable from a mock transfected control”.
